Laboratory results as given in the supplement of paper PMC10307832.

Key:
Assay in all cases: relative viability (nuclei count vs DMSO), 5 days (fraction); higher = more cells survive
[1] = compound: Cc1ccc2nc(NCCN)c3ncc(C)n3c2c1 + COc1cccc2cc(-c3nc([C@H]4CC[C@H](C(=O)O)CC4)n4ncnc(N)c34)[nH]c12 [OSI-027] (partner 0.5 µM)
How it was run: (§1)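 Relative viability divides the nuclei count in treated wells by that in vehicle wells. Lung cancer cell lines were seeded in 1536-well plates, dosed by pin tool the next day, and fixed and stained after 5 days in one step with final 0.05% Triton X-100, 1% formaldehyde and 1 ug/ml Hoechst. Dosing was a single drug or a fixed anchor-drug dose plus five library-drug doses (not always all listed) in √10 steps, and values are medians of duplicate plates imaged at 4×.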

Salubrinal + Navitoclax = compound: O=C(/C=C/c1ccccc1)NC(NC(=S)Nc1cccc2cccnc12)C(Cl)(Cl)Cl [Salubrinal] + CC1(C)CCC(c2ccc(Cl)cc2)=C(CN2CCN(c3ccc(C(=O)NS(=O)(=O)c4ccc(N[C@H](CCN5CCOCC5)CSc5ccccc5)c(S(=O)(=O)C(F)(F)F)c4)cc3)CC2)C1 [Navitoclax] (partner 0.5 µM)
How it was run: as §1

Salubrinal + OSI-027 = compound: O=C(/C=C/c1ccccc1)NC(NC(=S)Nc1cccc2cccnc12)C(Cl)(Cl)Cl [Salubrinal] + COc1cccc2cc(-c3nc([C@H]4CC[C@H](C(=O)O)CC4)n4ncnc(N)c34)[nH]c12 [OSI-027] (partner 0.5 µM)
How it was run: as §1

Salubrinal + Pictilisib = compound: O=C(/C=C/c1ccccc1)NC(NC(=S)Nc1cccc2cccnc12)C(Cl)(Cl)Cl [Salubrinal] + CS(=O)(=O)N1CCN(Cc2cc3nc(-c4cccc5[nH]ncc45)nc(N4CCOCC4)c3s2)CC1 [Pictilisib] (partner 1 µM)
How it was run: as §1

UMC-11
relative viability ([1]; first compound 0.04 µM): 0.51
relative viability ([1]; first compound 0.1265 µM): 0.471
relative viability ([1]; first compound 0.4 µM): 0.481
relative viability ([1]; first compound 1.265 µM): 0.416
relative viability ([1]; first compound 4 µM): 0.47
relative viability (Salubrinal + Navitoclax; first compound 0.08 µM): 0.281
relative viability (Salubrinal + Navitoclax; first compound 0.253 µM): 0.301
relative viability (Salubrinal + Navitoclax; first compound 0.8 µM): 0.329
relative viability (Salubrinal + Navitoclax; first compound 2.53 µM): 0.318
relative viability (Salubrinal + Navitoclax; first compound 8 µM): 0.305
relative viability (Salubrinal + OSI-027; first compound 0.08 µM): 0.498
relative viability (Salubrinal + OSI-027; first compound 0.253 µM): 0.399
relative viability (Salubrinal + OSI-027; first compound 0.8 µM): 0.548
relative viability (Salubrinal + OSI-027; first compound 2.53 µM): 0.46
relative viability (Salubrinal + OSI-027; first compound 8 µM): 0.455
relative viability (Salubrinal + Pictilisib; first compound 0.08 µM): 0.655
relative viability (Salubrinal + Pictilisib; first compound 0.253 µM): 0.688
relative viability (Salubrinal + Pictilisib; first compound 0.8 µM): 1.02
relative viability (Salubrinal + Pictilisib; first compound 2.53 µM): 0.933
relative viability (Salubrinal + Pictilisib; first compound 8 µM): 0.882
